Assay results reported in US20150105252A1, “SUBSTITUTED PYRAZOLES AS HERBICIDES” (E I DU PONT DE NEMOURS AND COMPANY, priority 2013, published 2015).

Tests used:
velvetleaf [1] = assay: Test A preemergence; format: in vivo, Abutilon theophrasti; settings: preemergence; for Velvetleaf plant response rating (0 to 100 scale): visual injury approx. 10 days after treatment
In short: (§1)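 Ratings express plant response from 0 (no effect) to 100 (complete control), judged visually against untreated controls after approximately 10 days in the greenhouse. Preemergence applications were made as directed soil sprays onto seeded loam–sand mix, and postemergence applications onto 2–10 cm plants at one- to two-leaf stage.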

morningglory [2] = assay: Test A preemergence; format: in vivo, Ipomoea spp.; settings: preemergence; for Morningglory plant response rating (0 to 100 scale): visual injury approx. 10 days after treatment
In short: as §1

crabgrass, large [3] = assay: Test A postemergence; format: in vivo, Digitaria sanguinalis
In short: as §1

ducksalad = assay: Test B flood; format: in vivo, Heteranthera limosa; settings: 250 g ai/ha, visual rating on 0 to 100 scale (0 no effect, 100 complete control), 13 to 15 days
In short: (§2)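 At two leaves, seedlings received the test compound via the paddy water, pots having been flooded 3 cm over the soil surface and kept so. Greenhouse-held for 13 to 15 days, then judged by eye against controls on a scale running 0 (no effect) to 100 (complete control).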

pigweed [4] = assay: Test A preemergence; format: in vivo, Amaranthus retroflexus; settings: preemergence; for Pigweed plant response rating (0 to 100 scale): visual injury approx. 10 days after treatment
In short: as §1

corn [5] = assay: Test A postemergence; format: in vivo, Zea mays
In short: as §1

pigweed [6] = assay: Test A postemergence; format: in vivo, Amaranthus retroflexus
In short: as §1

wheat [7] = assay: Test A preemergence; format: in vivo, Triticum aestivum; settings: preemergence; for Wheat plant response rating (0 to 100 scale): visual injury approx. 10 days after treatment
In short: as §1

corn [8] = assay: Test A preemergence; format: in vivo, Zea mays; settings: preemergence; for Corn plant response rating (0 to 100 scale): visual injury approx. 10 days after treatment
In short: as §1

foxtail, giant [9] = assay: Test A preemergence; format: in vivo, Setaria faberii; settings: preemergence; for Foxtail, Giant plant response rating (0 to 100 scale): visual injury approx. 10 days after treatment
In short: as §1

rice = assay: Test B flood; format: in vivo, Oryza sativa; settings: 250 g ai/ha, visual rating on 0 to 100 scale (0 no effect, 100 complete control), 13 to 15 days
In short: as §2

barnyardgrass [10] = assay: Test B flood; format: in vivo, Echinochloa crus-galli; settings: 250 g ai/ha, visual rating on 0 to 100 scale (0 no effect, 100 complete control), 13 to 15 days
In short: as §2

wheat [11] = assay: Test A postemergence; format: in vivo, Triticum aestivum
In short: as §1

barnyardgrass [12] = assay: Test A preemergence; format: in vivo, Echinochloa crus-galli; settings: preemergence
In short: as §1

sedge, umbrella = assay: Test B flood; format: in vivo, Cyperus difformis; settings: 250 g ai/ha, visual rating on 0 to 100 scale (0 no effect, 100 complete control), 13 to 15 days
In short: as §2

foxtail, giant [13] = assay: Test A postemergence; format: in vivo, Setaria faberii
In short: as §1

barnyardgrass [14] = assay: Test A postemergence; format: in vivo, Echinochloa crus-galli
In short: as §1

velvetleaf [15] = assay: Test A postemergence; format: in vivo, Abutilon theophrasti
In short: as §1

morningglory [16] = assay: Test A postemergence; format: in vivo, Ipomoea spp.
In short: as §1

crabgrass, large [17] = assay: Test A preemergence; format: in vivo, Digitaria sanguinalis; settings: preemergence; for Crabgrass, Large plant response rating (0 to 100 scale): visual injury approx. 10 days after treatment
In short: as §1

[18] = 125 g ai/ha, visual injury, 0 to 100 scale, approx. 10 days
[19] = 500 g ai/ha, visual injury after approx. 10 days, 0 to 100 scale (0 no effect, 100 complete control)
[20] = Postemergence, 500 g ai/ha, 0 to 100 scale (0 no effect, 100 complete control)
[21] = postemergence, 125 g ai/ha, about 10 days, visual rating on 0 to 100 scale (0 no effect, 100 complete control)

| Compound | Velvetleaf plant response rating (velvetleaf [1]; [19]) | Morningglory plant response rating (morningglory [2]; [19]) | Crabgrass, Large plant response rating (crabgrass, large [3]; [20]) | Crabgrass, Large plant response rating (crabgrass, large [3]; [21]) | Plant response rating, Ducksalad (ducksalad) | Pigweed plant response rating (pigweed [4]; [19]) | Corn plant response rating (corn [5]; [20]) | Corn plant response rating (corn [5]; [21]) | Pigweed plant response rating (pigweed [6]; [20]) | Pigweed plant response rating (pigweed [6]; [21]) | Wheat plant response rating (wheat [7]; [19]) | Foxtail, Giant plant response rating (foxtail, giant [9]; [19]) | Plant response rating, Rice (rice) | Plant response rating, Barnyardgrass (barnyardgrass [10]) | Wheat plant response rating (wheat [11]; [20]) | Wheat plant response rating (wheat [11]; [21]) | Barnyardgrass plant response rating (barnyardgrass [12]; [18]) | Barnyardgrass plant response rating (barnyardgrass [12]; [19]) | Plant response rating, Sedge, Umbrella (sedge, umbrella) | Foxtail, Giant plant response rating (foxtail, giant [13]; [20]) | further results |
| --- | --- | --- | --- | --- | --- | --- | --- | --- | --- | --- | --- | --- | --- | --- | --- | --- | --- | --- | --- | --- | --- |
| CCc1cc(C(=O)NCC(F)(F)F)nn1Cc1cc(C(F)(F)F)nn1CC [Compound 119] | 30 | 60 | 60 | 20 | 40 | 100 | 50 | 0 | 90 | 60 | 20 | 80 | 0 | 0 | 10 | 0 | 0 | 70 | 75 | 50 | Velvetleaf plant response rating (velvetleaf [1]; [18]): 0; Morningglory plant response rating (morningglory [2]; [18]): 20; Pigweed plant response rating (pigweed [4]; [18]): 80; Wheat plant response rating (wheat [7]; [18]): 0; Corn plant response rating (corn [8]; [18]): 0; Corn plant response rating (corn [8]; [19]): 30; Foxtail, Giant plant response rating (foxtail, giant [9]; [18]): 20; Foxtail, Giant plant response rating (foxtail, giant [13]; [21]): 20; Barnyardgrass plant response rating (barnyardgrass [14]; [20]): 60; Barnyardgrass plant response rating (barnyardgrass [14]; [21]): 10; Velvetleaf plant response rating (velvetleaf [15]; [20]): 70; Velvetleaf plant response rating (velvetleaf [15]; [21]): 50; Morningglory plant response rating (morningglory [16]; [20]): 100; Morningglory plant response rating (morningglory [16]; [21]): 90; Crabgrass, Large plant response rating (crabgrass, large [17]; [18]): 70; Crabgrass, Large plant response rating (crabgrass, large [17]; [19]): 100 |
| CCONC(=O)c1cc(CC)n(Cc2cc(C(F)(F)F)nn2CC)n1 [Compound 121] | 100 | 100 | 90 | 70 | 75 | 100 | 70 | 40 | 100 | 90 | 80 | 80 | 20 | 15 | 60 | 0 | 70 | 100 | 75 | 80 | Velvetleaf plant response rating (velvetleaf [1]; [18]): 20; Morningglory plant response rating (morningglory [2]; [18]): 100; Pigweed plant response rating (pigweed [4]; [18]): 100; Wheat plant response rating (wheat [7]; [18]): 10; Corn plant response rating (corn [8]; [18]): 30; Corn plant response rating (corn [8]; [19]): 90; Foxtail, Giant plant response rating (foxtail, giant [9]; [18]): 60; Foxtail, Giant plant response rating (foxtail, giant [13]; [21]): 50; Barnyardgrass plant response rating (barnyardgrass [14]; [20]): 90; Barnyardgrass plant response rating (barnyardgrass [14]; [21]): 90; Velvetleaf plant response rating (velvetleaf [15]; [20]): 100; Velvetleaf plant response rating (velvetleaf [15]; [21]): 60; Morningglory plant response rating (morningglory [16]; [20]): 100; Morningglory plant response rating (morningglory [16]; [21]): 90; Crabgrass, Large plant response rating (crabgrass, large [17]; [18]): 90; Crabgrass, Large plant response rating (crabgrass, large [17]; [19]): 100 |
| CCc1cc(C(=O)NCC(F)(F)F)nn1Cc1nnc(C(F)(F)F)o1 [Compound 146] | 60 | 100 | 80 | 10 | 0 | 100 | 0 | 0 | 90 | 60 | 10 | 90 | 0 | 0 | 0 | 0 | 0 | 90 | 0 | 20 | Velvetleaf plant response rating (0 to 100 scale) (velvetleaf [1]; 125 g ai/ha): 10; Morningglory plant response rating (0 to 100 scale) (morningglory [2]; 125 g ai/ha): 20; Pigweed plant response rating (0 to 100 scale) (pigweed [4]; 125 g ai/ha): 100; Wheat plant response rating (0 to 100 scale) (wheat [7]; 125 g ai/ha): 0; Corn plant response rating (0 to 100 scale) (corn [8]; 125 g ai/ha): 0; Foxtail, Giant plant response rating (0 to 100 scale) (foxtail, giant [9]; 125 g ai/ha): 10; Foxtail, Giant plant response rating (foxtail, giant [13]; [21]): 0; Barnyardgrass plant response rating (barnyardgrass [14]; [20]): 10; Barnyardgrass plant response rating (barnyardgrass [14]; [21]): 0; Velvetleaf plant response rating (velvetleaf [15]; [20]): 20; Velvetleaf plant response rating (velvetleaf [15]; [21]): 10; Morningglory plant response rating (morningglory [16]; [20]): 80; Morningglory plant response rating (morningglory [16]; [21]): 20; Crabgrass, Large plant response rating (0 to 100 scale) (crabgrass, large [17]; 125 g ai/ha): 80; Crabgrass, Large plant response rating (crabgrass, large [17]; [19]): 100 |
| CCCCc1cc(C(=O)NCC(F)(F)F)nn1Cc1ccnc(C(F)(F)F)c1 [Compound 148] | 20 | 30 | 50 | 20 | 30 | 100 | 40 | 10 | 100 | 90 | 0 | 90 | 15 | 0 | 20 | 0 | 10 | 40 | 40 | 40 | Velvetleaf plant response rating (0 to 100 scale) (velvetleaf [1]; 125 g ai/ha): 0; Morningglory plant response rating (0 to 100 scale) (morningglory [2]; 125 g ai/ha): 0; Pigweed plant response rating (0 to 100 scale) (pigweed [4]; 125 g ai/ha): 100; Wheat plant response rating (0 to 100 scale) (wheat [7]; 125 g ai/ha): 0; Corn plant response rating (0 to 100 scale) (corn [8]; 125 g ai/ha): 0; Corn plant response rating (corn [8]; [19]): 0; Foxtail, Giant plant response rating (0 to 100 scale) (foxtail, giant [9]; 125 g ai/ha): 10; Foxtail, Giant plant response rating (foxtail, giant [13]; [21]): 10; Barnyardgrass plant response rating (barnyardgrass [14]; [20]): 40; Barnyardgrass plant response rating (barnyardgrass [14]; [21]): 10; Velvetleaf plant response rating (velvetleaf [15]; [20]): 60; Velvetleaf plant response rating (velvetleaf [15]; [21]): 20; Morningglory plant response rating (morningglory [16]; [20]): 90; Morningglory plant response rating (morningglory [16]; [21]): 80; Crabgrass, Large plant response rating (0 to 100 scale) (crabgrass, large [17]; 125 g ai/ha): 50; Crabgrass, Large plant response rating (crabgrass, large [17]; [19]): 100 |
| CCCc1cc(C(=O)Nc2ccc(F)cc2)nn1Cc1cc(C(F)(F)F)nn1C [Compound 150] | 0 | 0 | 10 | 10 | 0 | 100 | 10 | 0 | 80 | 30 | 0 | 20 | 15 | 0 | 0 | 0 | 0 | 0 | 65 | 10 | Velvetleaf plant response rating (0 to 100 scale) (velvetleaf [1]; 125 g ai/ha): 0; Morningglory plant response rating (0 to 100 scale) (morningglory [2]; 125 g ai/ha): 0; Pigweed plant response rating (0 to 100 scale) (pigweed [4]; 125 g ai/ha): 50; Wheat plant response rating (0 to 100 scale) (wheat [7]; 125 g ai/ha): 0; Corn plant response rating (0 to 100 scale) (corn [8]; 125 g ai/ha): 0; Corn plant response rating (corn [8]; [19]): 0; Foxtail, Giant plant response rating (0 to 100 scale) (foxtail, giant [9]; 125 g ai/ha): 0; Foxtail, Giant plant response rating (foxtail, giant [13]; [21]): 0; Barnyardgrass plant response rating (barnyardgrass [14]; [20]): 20; Barnyardgrass plant response rating (barnyardgrass [14]; [21]): 0; Velvetleaf plant response rating (velvetleaf [15]; [20]): 10; Velvetleaf plant response rating (velvetleaf [15]; [21]): 10; Morningglory plant response rating (morningglory [16]; [20]): 30; Morningglory plant response rating (morningglory [16]; [21]): 30; Crabgrass, Large plant response rating (0 to 100 scale) (crabgrass, large [17]; 125 g ai/ha): 0; Crabgrass, Large plant response rating (crabgrass, large [17]; [19]): 20 |
